From the kinase profiling compilation of Christmann-Franck et al. (2016)

Assays:
Experiment in all cases: KINOMEscan competition binding
Settings in all cases: compound 10.0 µM
[1] = system: ABL1 (human), P00519 [M351T]
[2] = molecular target: ACVR2A (human) (UniProt P27037)
[3] = molecular target: AURKB (human) (UniProt Q96GD4)
[4] = molecular target: BMPR1A (human) (UniProt P36894)
[5] = molecular target: CAMK2G (human) (UniProt Q13555)
[6] = molecular target: CDC42BPA (human) (UniProt Q5VT25)
[7] = molecular target: CDC42BPG (human) (UniProt Q6DT37)
[8] = molecular target: CDK17 (human) (UniProt Q00537)
[9] = molecular target: CDK5 (human) (UniProt Q00535)
[10] = molecular target: CHEK1 (human) (UniProt O14757)
[11] = molecular target: CLK4 (human) (UniProt Q9HAZ1)
[12] = molecular target: CSNK1A1L (human) (UniProt Q8N752)
[13] = molecular target: DAPK2 (human) (UniProt Q9UIK4)
[14] = molecular target: DMPK (human) (UniProt Q09013)
[15] = molecular target: FGFR1 (human) (UniProt P11362)
[16] = system: FLT3 (human), P36888 [N841I]
[17] = molecular target: FRK (human) (UniProt P42685)
[18] = molecular target: INSR (human) (UniProt P06213)
[19] = molecular target: INSRR (human) (UniProt P14616)
[20] = molecular target: JAK3 JH1 catalytic (human) (UniProt P52333)
[21] = system: KIT (human), P10721 [V559D]
[22] = molecular target: MAP3K11 (human) (UniProt Q16584)
[23] = molecular target: MAP4K3 (human) (UniProt Q8IVH8)
[24] = molecular target: MAPK8 (human) (UniProt P45983)
Sequence of MAPK8 (human) (P45983 whole entry, looked up): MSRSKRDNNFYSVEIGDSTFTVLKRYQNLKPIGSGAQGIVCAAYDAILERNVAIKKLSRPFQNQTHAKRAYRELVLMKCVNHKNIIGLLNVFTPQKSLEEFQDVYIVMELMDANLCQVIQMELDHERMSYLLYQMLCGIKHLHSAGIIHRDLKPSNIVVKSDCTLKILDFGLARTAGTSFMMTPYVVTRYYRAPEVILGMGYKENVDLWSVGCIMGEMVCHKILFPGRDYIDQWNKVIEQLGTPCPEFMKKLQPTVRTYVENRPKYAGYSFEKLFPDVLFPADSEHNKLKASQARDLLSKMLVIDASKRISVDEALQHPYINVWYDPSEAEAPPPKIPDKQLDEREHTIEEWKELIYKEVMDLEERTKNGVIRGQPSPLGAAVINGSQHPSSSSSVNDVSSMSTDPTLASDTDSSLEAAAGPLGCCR

[25] = molecular target: MARK3 (human) (UniProt P27448)
[26] = molecular target: MERTK (human) (UniProt Q12866)
[27] = molecular target: MST1R (human) (UniProt Q04912)
[28] = molecular target: NEK9 (human) (UniProt Q8TD19)
[29] = molecular target: PAK3 (human) (UniProt O75914)
Sequence of PAK3 (human) (O75914 whole entry, looked up): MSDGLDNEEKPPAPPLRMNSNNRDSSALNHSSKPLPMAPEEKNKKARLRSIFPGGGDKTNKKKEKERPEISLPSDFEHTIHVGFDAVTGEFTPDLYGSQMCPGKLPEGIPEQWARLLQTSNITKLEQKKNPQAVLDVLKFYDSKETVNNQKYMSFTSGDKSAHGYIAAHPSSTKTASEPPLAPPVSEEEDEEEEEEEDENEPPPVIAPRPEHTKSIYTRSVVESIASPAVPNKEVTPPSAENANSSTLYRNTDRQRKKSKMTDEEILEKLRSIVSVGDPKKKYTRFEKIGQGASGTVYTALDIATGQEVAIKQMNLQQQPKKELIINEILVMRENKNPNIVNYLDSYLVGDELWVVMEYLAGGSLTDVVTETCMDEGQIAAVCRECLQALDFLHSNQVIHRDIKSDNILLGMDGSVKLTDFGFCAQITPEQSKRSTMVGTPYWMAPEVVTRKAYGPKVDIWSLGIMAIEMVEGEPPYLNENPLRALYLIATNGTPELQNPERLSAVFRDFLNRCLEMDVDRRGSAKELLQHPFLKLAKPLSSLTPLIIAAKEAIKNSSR

[30] = molecular target: PIK3C2B (human) (UniProt O00750)
Sequence of PIK3C2B (human) (O00750 whole entry, looked up): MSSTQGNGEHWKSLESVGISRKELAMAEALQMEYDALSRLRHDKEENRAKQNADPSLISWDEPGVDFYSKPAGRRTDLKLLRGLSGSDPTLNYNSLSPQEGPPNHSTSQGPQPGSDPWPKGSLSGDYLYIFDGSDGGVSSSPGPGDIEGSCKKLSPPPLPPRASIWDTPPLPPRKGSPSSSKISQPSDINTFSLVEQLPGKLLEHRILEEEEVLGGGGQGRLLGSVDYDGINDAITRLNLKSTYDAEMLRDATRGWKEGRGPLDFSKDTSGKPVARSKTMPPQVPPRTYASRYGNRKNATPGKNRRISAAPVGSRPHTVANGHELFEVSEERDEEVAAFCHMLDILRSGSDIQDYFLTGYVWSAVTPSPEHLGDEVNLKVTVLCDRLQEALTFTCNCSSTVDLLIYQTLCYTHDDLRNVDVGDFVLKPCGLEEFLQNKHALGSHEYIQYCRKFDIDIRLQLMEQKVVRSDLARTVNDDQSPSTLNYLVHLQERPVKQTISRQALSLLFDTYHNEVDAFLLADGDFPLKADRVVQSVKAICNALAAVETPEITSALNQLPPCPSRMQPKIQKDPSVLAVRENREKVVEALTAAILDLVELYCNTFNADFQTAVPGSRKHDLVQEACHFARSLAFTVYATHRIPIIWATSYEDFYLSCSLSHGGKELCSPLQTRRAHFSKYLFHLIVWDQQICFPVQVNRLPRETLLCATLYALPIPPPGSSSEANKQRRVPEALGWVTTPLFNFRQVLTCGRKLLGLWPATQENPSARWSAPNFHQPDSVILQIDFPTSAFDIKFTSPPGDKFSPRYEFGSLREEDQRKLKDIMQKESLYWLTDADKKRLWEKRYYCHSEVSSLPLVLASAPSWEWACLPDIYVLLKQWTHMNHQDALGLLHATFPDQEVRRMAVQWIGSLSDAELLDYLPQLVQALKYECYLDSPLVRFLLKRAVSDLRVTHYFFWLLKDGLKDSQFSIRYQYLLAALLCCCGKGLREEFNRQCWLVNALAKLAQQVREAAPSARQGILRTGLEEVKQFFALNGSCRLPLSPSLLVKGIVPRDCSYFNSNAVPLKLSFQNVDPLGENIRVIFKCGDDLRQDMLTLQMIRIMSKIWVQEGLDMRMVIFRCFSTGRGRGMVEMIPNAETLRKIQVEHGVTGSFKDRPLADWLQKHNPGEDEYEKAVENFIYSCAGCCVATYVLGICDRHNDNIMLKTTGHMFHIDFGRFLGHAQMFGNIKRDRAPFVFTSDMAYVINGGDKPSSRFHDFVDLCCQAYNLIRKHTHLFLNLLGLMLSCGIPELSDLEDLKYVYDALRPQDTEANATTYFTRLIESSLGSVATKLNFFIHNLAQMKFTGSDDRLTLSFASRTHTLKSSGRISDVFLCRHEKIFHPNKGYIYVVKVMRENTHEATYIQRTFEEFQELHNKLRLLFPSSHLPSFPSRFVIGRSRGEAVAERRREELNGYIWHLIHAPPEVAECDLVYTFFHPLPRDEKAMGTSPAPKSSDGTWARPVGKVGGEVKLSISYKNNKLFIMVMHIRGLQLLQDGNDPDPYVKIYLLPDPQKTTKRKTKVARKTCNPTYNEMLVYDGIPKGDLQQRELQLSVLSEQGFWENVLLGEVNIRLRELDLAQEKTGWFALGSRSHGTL

[31] = molecular target: PIK3CD (human) (UniProt O00329)
Sequence of PIK3CD (human) (O00329 whole entry, looked up): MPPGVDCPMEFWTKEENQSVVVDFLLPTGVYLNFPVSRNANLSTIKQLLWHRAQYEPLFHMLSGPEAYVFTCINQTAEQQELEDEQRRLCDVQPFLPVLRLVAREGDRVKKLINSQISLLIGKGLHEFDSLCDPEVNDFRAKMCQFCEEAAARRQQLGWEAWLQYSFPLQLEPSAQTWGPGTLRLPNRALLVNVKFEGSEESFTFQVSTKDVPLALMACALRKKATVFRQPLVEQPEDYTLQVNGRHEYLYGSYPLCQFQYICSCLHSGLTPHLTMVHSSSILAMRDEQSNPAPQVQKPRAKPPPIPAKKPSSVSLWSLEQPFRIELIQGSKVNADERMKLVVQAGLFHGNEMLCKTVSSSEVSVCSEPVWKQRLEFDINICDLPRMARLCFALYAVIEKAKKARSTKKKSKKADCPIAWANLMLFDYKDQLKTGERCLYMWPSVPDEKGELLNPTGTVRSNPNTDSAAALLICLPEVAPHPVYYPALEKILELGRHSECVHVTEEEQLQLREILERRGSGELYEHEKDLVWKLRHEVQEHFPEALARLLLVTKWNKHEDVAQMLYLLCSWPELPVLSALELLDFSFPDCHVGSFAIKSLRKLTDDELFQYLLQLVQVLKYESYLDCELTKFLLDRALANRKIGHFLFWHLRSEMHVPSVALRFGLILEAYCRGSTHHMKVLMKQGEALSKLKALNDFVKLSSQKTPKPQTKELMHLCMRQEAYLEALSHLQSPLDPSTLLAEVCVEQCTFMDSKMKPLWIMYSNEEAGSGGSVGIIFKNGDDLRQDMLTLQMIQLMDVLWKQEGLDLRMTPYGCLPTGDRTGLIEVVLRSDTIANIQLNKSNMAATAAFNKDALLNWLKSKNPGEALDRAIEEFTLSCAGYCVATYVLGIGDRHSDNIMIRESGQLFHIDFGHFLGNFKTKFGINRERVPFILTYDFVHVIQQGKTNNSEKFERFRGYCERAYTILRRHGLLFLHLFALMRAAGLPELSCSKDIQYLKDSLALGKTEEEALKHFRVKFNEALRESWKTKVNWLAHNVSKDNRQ

[32] = molecular target: PLK1 (human) (UniProt P53350)
[33] = molecular target: PRKAA2 (human) (UniProt P54646)
[34] = molecular target: STK11 (human) (UniProt Q15831)
Sequence of STK11 (human) (Q15831 whole entry, looked up): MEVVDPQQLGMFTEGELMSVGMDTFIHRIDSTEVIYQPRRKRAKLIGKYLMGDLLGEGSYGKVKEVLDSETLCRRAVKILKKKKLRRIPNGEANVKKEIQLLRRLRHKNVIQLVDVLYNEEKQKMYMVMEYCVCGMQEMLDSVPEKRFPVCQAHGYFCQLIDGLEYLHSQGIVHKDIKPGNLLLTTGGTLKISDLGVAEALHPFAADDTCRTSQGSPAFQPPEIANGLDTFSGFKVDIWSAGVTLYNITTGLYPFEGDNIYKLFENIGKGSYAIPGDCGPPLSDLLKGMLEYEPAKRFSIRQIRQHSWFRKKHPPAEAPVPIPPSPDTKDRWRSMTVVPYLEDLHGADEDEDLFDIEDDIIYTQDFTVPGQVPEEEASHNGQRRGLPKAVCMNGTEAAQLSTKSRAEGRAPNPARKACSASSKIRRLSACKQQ

[35] = molecular target: STK17A (human) (UniProt Q9UEE5)
[36] = molecular target: STK24 (human) (UniProt Q9Y6E0)
[37] = molecular target: STK4 (human) (UniProt Q13043)
[38] = molecular target: TGFBR2 (human) (UniProt P37173)
Sequence of TGFBR2 (human) (P37173 whole entry, looked up): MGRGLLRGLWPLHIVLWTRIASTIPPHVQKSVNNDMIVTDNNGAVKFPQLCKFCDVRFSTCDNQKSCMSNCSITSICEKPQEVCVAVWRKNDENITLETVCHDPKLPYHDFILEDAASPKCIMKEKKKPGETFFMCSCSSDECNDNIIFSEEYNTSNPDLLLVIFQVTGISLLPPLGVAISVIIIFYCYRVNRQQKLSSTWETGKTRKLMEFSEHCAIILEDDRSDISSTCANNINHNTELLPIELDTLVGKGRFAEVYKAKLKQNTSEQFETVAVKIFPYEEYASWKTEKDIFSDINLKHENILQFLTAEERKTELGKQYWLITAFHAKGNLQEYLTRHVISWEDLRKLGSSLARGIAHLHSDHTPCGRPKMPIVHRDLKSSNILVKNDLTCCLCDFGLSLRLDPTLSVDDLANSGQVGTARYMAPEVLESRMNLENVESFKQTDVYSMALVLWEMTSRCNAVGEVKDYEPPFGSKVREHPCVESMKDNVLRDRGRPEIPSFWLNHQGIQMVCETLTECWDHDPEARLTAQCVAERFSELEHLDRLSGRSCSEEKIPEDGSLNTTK

[39] = molecular target: TLK2 (human) (UniProt Q86UE8)
[40] = molecular target: TYK2 JH1 catalytic (human) (UniProt P29597)

Sequence of AURKB (human) (Q96GD4 whole entry, looked up): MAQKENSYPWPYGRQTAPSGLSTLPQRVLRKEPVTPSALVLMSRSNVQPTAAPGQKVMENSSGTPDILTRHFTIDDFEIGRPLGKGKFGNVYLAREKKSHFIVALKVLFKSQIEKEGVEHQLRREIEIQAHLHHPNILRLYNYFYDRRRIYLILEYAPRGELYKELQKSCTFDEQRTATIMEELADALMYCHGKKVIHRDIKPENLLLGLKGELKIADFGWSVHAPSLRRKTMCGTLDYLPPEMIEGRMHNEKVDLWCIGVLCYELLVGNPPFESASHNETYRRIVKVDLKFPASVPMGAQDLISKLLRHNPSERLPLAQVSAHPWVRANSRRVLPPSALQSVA

## Cc1ccc(C(=O)Nc2cccc(C(F)(F)F)c2)cc1Nc1cncc(C(N)=O)c1
[1]
  kinase still bound, per cent of control: 27%
[2]
  kinase still bound, per cent of control: 100%
[3]
  kinase still bound, per cent of control: 100%
[4]
  kinase still bound, per cent of control: 100%
[5]
  kinase still bound, per cent of control: 100%
[6]
  kinase still bound, per cent of control: 100%
[7]
  kinase still bound, per cent of control: 100%
[8]
  kinase still bound, per cent of control: 100%
[9]
  kinase still bound, per cent of control: 100%
[10]
  kinase still bound, per cent of control: 100%
[11]
  kinase still bound, per cent of control: 100%
[12]
  kinase still bound, per cent of control: 100%
[13]
  kinase still bound, per cent of control: 100%
[14]
  kinase still bound, per cent of control: 100%
[15]
  kinase still bound, per cent of control: 100%
[16]
  kinase still bound, per cent of control: 100%
[17]
  kinase still bound, per cent of control: 1.3%
[18]
  kinase still bound, per cent of control: 100%
[19]
  kinase still bound, per cent of control: 100%
[20]
  kinase still bound, per cent of control: 100%
[21]
  kinase still bound, per cent of control: 0%
[22]
  kinase still bound, per cent of control: 100%
[23]
  kinase still bound, per cent of control: 100%
[24]
  kinase still bound, per cent of control: 100%
[25]
  kinase still bound, per cent of control: 100%
[26]
  kinase still bound, per cent of control: 100%
[27]
  kinase still bound, per cent of control: 100%
[28]
  kinase still bound, per cent of control: 100%
[29]
  kinase still bound, per cent of control: 100%
[30]
  kinase still bound, per cent of control: 100%
[31]
  kinase still bound, per cent of control: 100%
[32]
  kinase still bound, per cent of control: 100%
[33]
  kinase still bound, per cent of control: 100%
[34]
  kinase still bound, per cent of control: 100%
[35]
  kinase still bound, per cent of control: 100%
[36]
  kinase still bound, per cent of control: 100%
[37]
  kinase still bound, per cent of control: 100%
[38]
  kinase still bound, per cent of control: 100%
[39]
  kinase still bound, per cent of control: 100%
[40]
  kinase still bound, per cent of control: 100%
